In this test the target is T1, Sl-CathL-mutSC.
T1 construct: ORF of Sl-CathL-CS (GenBank JZ136744.1) without signal peptide, C-terminal 6x His tag, expressed in P. pastoris KM71H
The test is described as follows: fluorogenic protease assay (AMC release), Ki by Morrison equation. It counts as biochemical, Sphenophorus levis.

Consider `CC(C)C[C@H](NC(=O)[C@H]1O[C@@H]1C(=O)O)C(=O)NCCCCN=C(N)N` [E-64], for which the Ki – broadly, a dissociation constant, usually derived from enzyme kinetics or from competition with a known ligand – turned out to be 38.5 ± 1.2 µM.

These data come from article PMC8583781, “Identification and Functional Analysis of a Pseudo-Cysteine Protease from the Midgut Transcriptome of Sphenophorus levis” (International Journal of Molecular Sciences, 2021).
